From PMC13131050, “Nicotinamide-Loaded Peptoid Nanotubes for Energy Regeneration in Acute Brain Injury” (ACS Nano, 2026)
Where a name gives a salt, the structure may show the parent alone.

Experiments:
BV-2 cells [1] = assay: Inhibition of DNS-PNT uptake by endocytic pathway inhibitors in BV-2 cells; type: cell-based, murine; conditions: inhibitor 10 μM, 1 h pre-incubation, DNS-PNT 20 μg/mL 24 h with or without inhibitor; confocal imaging
Protocol: BV-2 cells were seeded at a density of 10,000 cells per well in a 96-well plate and cultured for 2 days. […] Following uptake, the medium containing PNTs was collected, and the cells were further incubated in fresh CCM for 1 or 24 h to allow exocytosis. The supernatant was subsequently collected, and the cells were washed three times with PBS. […] Fluorescence intensity was measured directly at 335/518 nm excitation and emission using a Synergy H1 multimodal microplate reader. For inhibition studies, BV-2 cells were seeded in 35 mm culture dishes (VWR) at a density of 300,000 cells and cultured for 2 days. […] The inhibitors used were chlorpromazine hydrochloride (Sigma), cytochalasin D (Sigma), amiloride hydrochloride hydrate (Sigma), sucrose (Thermo Fisher Scientific), and genistein (Sigma). − After treatment, cells were incubated with LysoTracker (75 nM, Invitrogen) for 1 h and fixed with 10% formalin phosphate buffer (Thermo Fisher Scientific) for 10 min. Subsequently, cells were stained with Tomato Lectin (1 μg/mL, 1 h) and ToPro-3 (0.1 μg/mL, 15 min; Thermo Fisher Scientific) in PBS at room temperature. Confocal images were acquired using a Nikon microscope (40× and […] oil immersion objectives, 1.30 numerical aperture; Nikon Corporation, Minato City, Tokyo, Japan).

BV-2 cells [2] = assay: MTT cell viability / cytotoxicity in healthy BV-2 cells; type: cell-based, murine; conditions: 3 doses equivalent to NAM-PNT, 24 h (Figure S11)
Protocol: Murine microglia BV-2 cells were purchased from ATCC (CRL-2469) and cultured based on previous literature. Briefly, BV-2 cells were cultured in cell culture media (CCM, high-glucose, phenol red-free DMEM supplemented with 10% FBS, 1% glutamine, and 1% 100 U/mL penicillin–streptomycin) at 37 °C under a 5% CO2 atmosphere. The passage number of BV-2 cells used in this study was between 7 and 15. At 70–80% confluency, BV-2 cells were passaged and seeded in a 96-well plate for further experiments. […] Cell cytotoxicity was identified by the standard 3-(4,5-dimethylthiazol-2-yl)-2,5-diphenyltetrazolium bromide (MTT) assay (Thermo Fisher Scientific) on healthy cells. After 24 h, cells were incubated with fresh media containing 10 μL of 12 mM MTT solution in PBS for 4 h. Following the addition of 50 μL of […] (DMSO), the absorbance was recorded by a Synergy H1 multimodal microplate reader at a wavelength of 540 nm. Cell viability was measured using the alamarBlue (aBlue) Cell Viability Reagent (Thermo Fisher Scientific). […] The plate was measured directly at 560/590 nm excitation/emission fluorescence on a Synergy H1 multimodal microplate reader. Readings were normalized to those of healthy controls. […] Data were collected using a Synergy H1 multimodal microplate reader. For the OGD studies, readings were normalized to the average value of the OGD controls.

OGD-exposed BV-2 cells = assay: AlamarBlue cell viability / metabolic activity in OGD-exposed BV-2 cells; type: cell-based, murine; conditions: 10 min OGD, then treatment, normalized to OGD controls
Protocol: Murine microglia BV-2 cells were purchased from ATCC (CRL-2469) and cultured based on previous literature. Briefly, BV-2 cells were cultured in cell culture media (CCM, high-glucose, phenol red-free DMEM supplemented with 10% FBS, 1% glutamine, and 1% 100 U/mL penicillin–streptomycin) at 37 °C under a 5% CO2 atmosphere. The passage number of BV-2 cells used in this study was between 7 and 15. At 70–80% confluency, BV-2 cells were passaged and seeded in a 96-well plate for further experiments. […] Following the addition of 50 μL of […] (DMSO), the absorbance was recorded by a Synergy H1 multimodal microplate reader at a wavelength of 540 nm. Cell viability was measured using the alamarBlue (aBlue) Cell Viability Reagent (Thermo Fisher Scientific). […] The plate was measured directly at 560/590 nm excitation/emission fluorescence on a Synergy H1 multimodal microplate reader. Readings were normalized to those of healthy controls. […] Data were collected using a Synergy H1 multimodal microplate reader. For the OGD studies, readings were normalized to the average value of the OGD controls.

[3] = test system: OGD-exposed OWH brain slices; assay: Propidium iodide cell death in OGD-exposed OWH brain slices; type: cell-based, rat; conditions: OGD-exposed P10 OWH slices, cortex and striatum, 24 h treatment, n = 7
Protocol: All treatments were applied topically.
After 24 h of treatment, slices were stained with 1 mL of 5 μg/mL PI (Thermo Fisher Scientific) in SCM for 45 min under standard culture conditions as previously described. , The staining solution was placed underneath the inset. Slices were washed twice for 3 min each with sterile 1× PBS at room temperature, followed by a 1 h wash with 37 °C SCM under culturing conditions, and then fixed with 10% formalin phosphate buffer (Thermo Fisher Scientific) for 1 hour. Following two final washes with room temperature 1× PBS, slices were stored covered at 4 °C until they were ready for use. Within 2 weeks, slices were stained for 15 min with 0.1 μg/mL DAPI (Thermo Fisher Scientific) in 1× PBS at room temperature. Slices were washed twice for 3 min each with 1× PBS prior to imaging. […] For each image, DAPI+ cell nuclei (total cells) and PI+ cell nuclei (dead cells) that were also DAPI+ were counted manually in ImageJ (NIH) after applying an Otsu threshold and fluorescence cutoff to aid in visualization. , The fluorescence cutoff was kept consistent across all images. The PI+/DAPI+ cell ratio was expressed as the percentage of dead cells in an individual image.

BV-2 cells [4] = assay: Intracellular ATP level (luminescent ATP detection kit) in BV-2 cells; type: cell-based, murine
Protocol: We prepared OGD media as previously described. , OGD media consisted of 120 mM sodium chloride (NaCl, MilliporeSigma), 5 mM potassium chloride (KCl, MilliporeSigma), 2 mM calcium chloride (CaCl2, MilliporeSigma), 1.25 mM monosodium phosphate anhydrous (NaH2PO4, MilliporeSigma), 2 mM magnesium sulfate (MgSO4, MilliporeSigma), 25 mM sodium bicarbonate (NaHCO3, MilliporeSigma), and 20 mM HEPES in DI water. The OGD medium was sterile-filtered (0.2 μm), titrated to pH 7.4 with 1 M hydrochloric acid (Thermo Fisher Scientific) or 1 M sodium hydroxide (Thermo Fisher Scientific), bubbled with nitrogen gas (Praxair, Danbury, CT, USA) for at least 10 min, and prewarmed to 37 °C prior to use. […] Following the addition of 50 μL of […] (DMSO), the absorbance was recorded by a Synergy H1 multimodal microplate reader at a wavelength of 540 nm. Cell viability was measured using the alamarBlue (aBlue) Cell Viability Reagent (Thermo Fisher Scientific). […] The plate was measured directly at 560/590 nm excitation/emission fluorescence on a Synergy H1 multimodal microplate reader. Readings were normalized to those of healthy controls. […] Data were collected using a Synergy H1 multimodal microplate reader. For the OGD studies, readings were normalized to the average value of the OGD controls.

[5] = AFM dimensions (height, length) of peptoid nanotubes; type: physicochemical; conditions: nanotubes assembled from the named peptoid; ex-situ AFM on mica
Protocol: The lengths of PNTs can be adjusted through sonication.
PNTs were prepared using the slow evaporation method to self-assemble the peptoids. Typically, 1 μmol of peptoid was treated with 2 μL of trifluoroacetic acid (TFA) and dried under a flow of N2. Subsequently, 100 μL of acetonitrile was added, followed by the addition of 0.5 M NaOH. Deionized water was then added to bring the total volume to 200 μL. The samples were left at 4 °C for slow evaporation until a gel-like solution was obtained. Ex situ Atomic Force Microscopy (AFM) analysis was conducted using a Bruker MultiMode 8 in ScanAsyst mode at room temperature. For sample preparation, 1.5 μL of the self-assembled peptoid was diluted 40 times with deionized water and deposited on a mica substrate. After 5 min, Whatman filter paper was used to remove the solution, and then the dried mica substrate was further dried under N2 flow. The AFM probe consisted of silicon tips on silicon cantilevers (NCHV probes, k = 42 N/m, tip radius). Scanning electron microscopy (SEM) images were captured from the samples deposited on a silicon wafer using the Apreo2S scanning electron microscope by Thermo Fisher. The imaging process employed an ETD detector, an excitation voltage of 2 kV, a current of 0.2 nA, and a working distance of around 8 mm. […] XRD data were analyzed using custom Python scripts.

O=c1c(-c2ccc(O)cc2)coc2cc(O)cc(O)c12 [genistein]
Effect of inhibitor on DNS-PNT internalization into BV-2 cells (BV-2 cells [1]): significantly suppressed PNT signals

CN(C)CCCN1c2ccccc2Sc2ccc(Cl)cc21 [chlorpromazine, chlorpromazine hydrochloride]
Effect of inhibitor on DNS-PNT internalization into BV-2 cells (BV-2 cells [1]): minimal impact

OC[C@H]1O[C@@](CO)(O[C@H]2O[C@H](CO)[C@@H](O)[C@H](O)[C@H]2O)[C@@H](O)[C@@H]1O [sucrose]
Effect of inhibitor on DNS-PNT internalization into BV-2 cells (BV-2 cells [1]): reduced PNT uptake

NC(=O)C1=CN([C@@H]2O[C@H](COP(=O)(O)OP(=O)(O)OC[C@H]3O[C@@H](n4cnc5c(N)ncnc54)[C@H](O)[C@@H]3O)[C@@H](O)[C@H]2O)C=CC1 [free NAD+, β-nicotinamide adenine dinucleotide]
Increase in cell viability with free drug (MTT) (BV-2 cells [2]): increase was not seen | Metabolic activity / cell viability (AlamarBlue) versus OGD control (OGD-exposed BV-2 cells): no effect | Cell death (percentage of PI+ cells) [3]: did not improve cell viability

NC(=O)c1cccnc1 [free NAM, nicotinamide]
Increase in cell viability with free drug (MTT) (BV-2 cells [2]): increase was not seen | Improvement of intracellular ATP level after OGD energy depletion (BV-2 cells [4]; OGD-exposed BV-2 cells, free drug): did not | Cellular ATP level in healthy cells (BV-2 cells [4]; healthy BV-2 cells, 24 h (Figure S16a)): limited increase compared to NAM-PNTs

Nbrpm6Nce3Nae3Nc2DNS [Pep-DNS]
Height of nanotubes (ex-situ AFM) [5]: 7.78 ± 0.07 nm

C=C1[C@@H](C)[C@H]2[C@H](Cc3ccccc3)NC(=O)[C@]23[C@H](OC(C)=O)/C=C/[C@@](C)(O)C(=O)[C@@H](C)C/C=C/[C@H]3[C@@H]1O [Cytochalasin D, cytochalasin D]
Effect of inhibitor on DNS-PNT internalization into BV-2 cells (BV-2 cells [1]): significantly suppressed PNT signals

N=C(N)NC(=O)c1nc(Cl)c(N)nc1N [amiloride, amiloride hydrochloride hydrate]
Effect of inhibitor on DNS-PNT internalization into BV-2 cells (BV-2 cells [1]): minimal impact
